Series [1] has as its system mycotoxicosis due to DON ingestion. Set-up: Stomach ulcer: key to the marks not given beside the values. The settings on record: pig, in vivo.
For series [2] the following is noted: pig, in vivo, 0.05 mg/kg.

As to `CC1=C[C@H]2O[C@@H]3[C@H](O)C[C@](C)([C@@]2(CO)[C@H](O)C1=O)[C@]31CO1` [DON, deoxynivalenol], in series [1], the “ADG1 average daily weight gain over the first 15 days of the challenge” value stood at 0.54, the “ADG average daily weight gain over the last 13 days of the challenge” value was found to be 0.81, the Kidneys result is recorded as “Pail” and the Liver colour entry was “Pail”. Also, in series [1], the Stomach inflammation result is listed as “++/−”; the Stomach ulcer result was “++”; the “villus/crypt ratio, average” value is given as 1.09. In series [1] (po, 5.4 mg/kg), this compound registered a weight begin of 12.69 and a weight end of 31.75. Moreover, in series [2], the “AUC0→∞ of unbound DON” value is recorded as 187 ± 33 and the “Cmax of unbound DON” value is given as 30.8 ± 2.5.

The values are drawn from patent publication US20240024395A1 (priority 2020, published 2024).
